Results as given in publication PMC11761228, “Cinnamic Acid Compounds (p-Coumaric, Ferulic, and p-Methoxycinnamic Acid) as Effective Antibacterial Agents Against Colistin-Resistant Acinetobacter baumannii” (Antibiotics, 2025).
Values after ≈ are worked out from the molar mass of the structure shown. Like-named read-outs stand apart in the source and are kept apart here.

Legend:
COLR-Ab4 isolate = assay: Scanning electron microscopy of cell morphology; assay type: cell-based, Acinetobacter baumannii; settings: COLR-Ab4, MIC concentrations, 3 h
Experimental: To examine the potential impact of the antimicrobial agents on the cell morphology of the COLR-Ab4 isolate, SEM studies were carried out according to the method Bendali et al. (2008), with minor modifications. […] Bacteria incubated without treatment with agents were used as controls. After incubation, the suspension was centrifuged for 10 min at 4000× g. The bacteria were washed twice with 0.1 M phosphate-buffered solution (PBS, pH 7.0). The pellet was fixed in 2.5% glutaraldehyde solution and kept for at 4 °C for 2 h. After washing the bacteria again twice with PBS, the sample was fixed in 1% osmium tetroxide solution for 1 h. Then, the samples were dehydrated through suspension in increasing concentrations of ethanol (30, 50, 70, 80, 90, and 100%) for 10 min each. The ethanol was then replaced by 100% acetone. Finally, the samples were fixed on an SEM support, coated with gold/palladium using sputtering in a vacuum, and examined using SEM (Zeiss LEO 1430, Cambridge, UK).

A. baumannii isolates = settings: various A. baumannii isolates; ref 28 (Ibitoye and Ajiboye, 2019); cited from earlier work
Vero cells = settings: cited from earlier work; for IC50 (cytotoxic effects): after 48 h, ref 70 (Sevimli-Gur and Yesil-Celiktas); for IC50: read-out: IC50 (cytotoxicity), 24 h of incubation, 5 mM maximum tested dose, ref 69 (Saenglee et al.)
COLR-Ab isolates = assay: Checkerboard synergy test with COL; assay type: cell-based, Acinetobacter baumannii
Experimental: The checkerboard synergy test, based on microdilution, was carried out to investigate the combined activity of antibiotic and cinnamic acid derivatives. The effectiveness of the two antimicrobial drugs in combination was evaluated using a 96-well microplate for each strain. The medium employed was CAMHB. […] COL was added vertically, and cinnamic acids was added horizontally to the wells. The bacterial suspension was prepared to 0.5 McFarland standard density, and the final bacterial concentration was adjusted to 5 × 10^5 CFU/mL. In total, 10 µL of bacterial inoculum was added to each well. Bacterial growth control (CAMHB + bacteria) and medium sterility control (CAMHB) were also examined for each plate. The plates were incubated at 35 ± 2 °C for 18–24 h. Each experiment was conducted in triplicate.
The fractional inhibition concentrations (FIC) of all antimicrobial agents were calculated for the evaluation of the results in accordance with the following formulae:FICA = (MIC of A in combination/MIC of A alone)FICB = (MIC of B in combination/MIC of B alone)FICindex(FICI) = FICA + FICB
FICI ≤ 0.5 was considered to indicate synergism, […] ≤ 4 was considered to indicate indifference, and FICI > 4 was considered to indicate antagonism. In the formulae, the letter “A” is used to represent COL, while “B” is used to represent one of the compounds, p-CA, FA, and p-MCA.

A. baumannii strains = settings: three A. baumannii isolates; cited from earlier work
[1] = system: biofilm production of A. baumannii isolates; parameters: method as in ref 51 (Mumtaz et al., 2023); settings: ref 51 (Mumtaz et al., 2023); cited from earlier work
E. coli = settings: cited from earlier work
Salmonella typhimurium = system: Salmonella typhimurium; parameters: method as in ref 35 (Lou et al., 2012); settings: ref 35 (Lou et al., 2012); cited from earlier work
Streptococcus pneumoniae = system: Streptococcus pneumoniae; parameters: method as in ref 35 (Lou et al., 2012); settings: ref 35 (Lou et al., 2012); cited from earlier work
Bacillus subtilis = settings: cited from earlier work
293T cells = settings: 24 h, tested range 0.78–200 μg/mL
[2] = system: HUVEC-originated ECV304 cells; settings: ref 72 (Kong et al.); cited from earlier work
S. aureus = settings: cited from earlier work
Shigella dysenteriae = settings: ref 35 (Lou et al., 2012); cited from earlier work
Micrococcus luteus = system: Micrococcus luteus; parameters: method as in ref 29 (Nakazono et al., 2006); settings: ref 29 (Nakazono et al., 2006); cited from earlier work
Salmonella enteritidis = system: Salmonella enteritidis; parameters: method as in ref 29 (Nakazono et al., 2006); settings: ref 29 (Nakazono et al., 2006); cited from earlier work

Compound	Cell morphology by SEM (COLR-Ab4 isolate)	IC50 (cytotoxic effects) (Vero cells) [µg/mL]	IC50 (Vero cells) [mM]	Interpretation of FICI for COL combined with the compound (COLR-Ab isolates; COLR-Ab1)	Mean FICI for COL combined with the compound (COLR-Ab isolates; COLR-Ab1)	Interpretation of FICI for COL combined with the compound (COLR-Ab isolates; COLR-Ab2)	Mean FICI for COL combined with the compound (COLR-Ab isolates; COLR-Ab2)	Interpretation of FICI for COL combined with the compound (COLR-Ab isolates; COLR-Ab3)	Mean FICI for COL combined with the compound (COLR-Ab isolates; COLR-Ab3)	Interpretation of FICI for COL combined with the compound (COLR-Ab isolates; COLR-Ab4)	Mean FICI for COL combined with the compound (COLR-Ab isolates; COLR-Ab4)	Interpretation of FICI for COL combined with the compound (COLR-Ab isolates; COLR-Ab5)	Mean FICI for COL combined with the compound (COLR-Ab isolates; COLR-Ab5)	further results
COc1cc(/C=C/C(=O)O)ccc1O [FA, ferulic acid]	certain morphological changes in bacterial cells	134 ± 0.8 (≈ 690 µM)	> 5	S (synergistic effect)	0.15	S (synergistic effect)	0.15	S (synergistic effect)	0.15	I (indifferent effect)	0.51	S (synergistic effect)	0.12	Combination effect with quinolone-based antibiotics in words (A. baumannii isolates): synergistic effect; MIC (A. baumannii strains): 12.5 µg/mL (≈ 64.4 µM); Inhibition of biofilm production [1]: 49–69%
O=C(O)/C=C/c1ccc(O)cc1 [p-CA, p-coumaric acid]	certain morphological changes in bacterial cells	163 ± 0.3 (≈ 993 µM)	> 5	S (synergistic effect)	0.16	S (synergistic effect)	0.19	S (synergistic effect)	0.16	S (synergistic effect)	0.15	S (synergistic effect)	0.28	MIC (E. coli; ref 35 (Lou et al., 2012)): 20 µg/mL (≈ 122 µM); MIC (Salmonella typhimurium): 20 µg/mL (≈ 122 µM); MIC (Streptococcus pneumoniae): 10 µg/mL (≈ 60.9 µM); MIC (Bacillus subtilis; ref 35 (Lou et al., 2012)): 20 µg/mL (≈ 122 µM); IC50 value (293T cells): indeterminate; Concentration shown to induce cytotoxicity [2]: 5000 µM; Concentrations with no significant effects on the cell viability [2]: ≤ 2500 µM; MIC (S. aureus; ref 35 (Lou et al., 2012)): 80 µg/mL (≈ 487 µM); MIC (Shigella dysenteriae): 20 µg/mL (≈ 122 µM)
COc1ccc(C=CC(=O)O)cc1 [p-MCA, p-methoxycinnamic acid]	certain morphological changes in bacterial cells	–	–	S (synergistic effect)	0.09	S (synergistic effect)	0.09	S (synergistic effect)	0.27	S (synergistic effect)	0.14	S (synergistic effect)	0.27	MIC (E. coli): 30 µg/mL (≈ 168 µM); MIC (E. coli; ref 29 (Nakazono et al., 2006)): 50 µg/mL (≈ 281 µM); MIC (Bacillus subtilis): 40 µg/mL (≈ 224 µM); MIC (Micrococcus luteus): 80 µg/mL (≈ 449 µM); MIC (S. aureus): 40 µg/mL (≈ 224 µM); MIC (S. aureus; ref 29 (Nakazono et al., 2006)): 60 µg/mL (≈ 337 µM); MIC (Salmonella enteritidis): 60 µg/mL (≈ 337 µM)
